In patent US6537545B1, “Use of corneal hardening agents in enzymeorthokeratology” (ISTA Pharmaceuticals, Inc., priority 1998, dated 2003):

Columns and labels:
Type in all cases: in vivo
Dutch Belted rabbit eyes = assay: Slit lamp biomicroscopy including Rose Bengal staining (Example 2)
Description: This example further examines the safety of glyceraldehyde treatment in an animal model. The experiment described in Example 2 involved the study of six (6) pigmented Dutch Belted rabbits, two (2) in the control group and four (4) in glyceraldehyde treated experimental group. On Study Day 1, all rabbits received a thorough ophthalmic examination including slit lamp biomicroscopy and indirect ophthalmoscopy.
The slit lamp biomicroscopy was performed substantially as described in Example 1. However, Rose Bengal stain was used here applied using Rose Bengal Ophthalmic Strips (Barnes-Hind, Inc., Sunnyvale, Calif.). This procedure involved a sterile strip wetted in 0.9% sodium chloride applied to the […] and sciera of an examined rabbit. The rabbit was allowed to blink applying the stain and then the treated eye was examined. Slit lamp biomicroscopy including Rose Bengal staining was performed on Study Days 1 (baseline), 8, 9, 11, 15, 34, 45, and 63. The animals were scored and the results recorded using the criteria described in Example 1.
Following baseline examinations, the rabbits were anesthetized and received a corneal intrastromal injection of 500 IU of hyaluronidase in OD (right eye) only using the method described in Example 1.
The administration of the test agents in the form of topical eyedrops began on Study Day 8. The control animals were administered a Balanced Saline Solution (BSS) (IOLAB Corporation, Claremont, Calif.) four times a day in each eye. The experimental animals received a 3% glyceraldehyde solution. The glyceraldehyde solution was prepared under sterile conditions at Advanced Corneal Systems (Irvine, Calif.) by dissolving 18 grams of glyceraldehyde in 600 mL of 0.9% sodium chloride USP, sterile filtering, and aliquotting the 3% glyceraldehyde (w/v) solution into 10 ml droppers. The experimental rabbits received one drop of glyceraldehyde solution four times a day using the technique described in Example 1. The rabbits received topical drops for a total of 63 days.

[1] = system: eyes of non-sighted human patients; assay: Safety of enzymatic corneaplasty with hyaluronidase and topical 3% glyceraldehyde in seven non-sighted human patients (Example 6); conditions: 500 IU hyaluronidase, lenses, 3% glyceraldehyde 2 drops 4 times per day, 28 days
Description: The methodology used in this study was similar to that discussed in Example 4. Subjects were injected intrastromally with 500 IU of a hyaluronidase solution on the first day of the study following an initial eye examination. The injected enzyme was allowed to digest the corneal substrate for seven (7) days. At that time contact lenses were fitted to the treated eyes of the subjects. The subjects wore the lenses for another seven days at which time the topical application of the 3% glyceraldehyde solution was first applied. The 3% glyceraldehyde solution was applied at 2 drops, 4 times per day for the following 28 days. At the end of the 28 days the contact lenses were removed and the glyceraldehyde treatments were ceased.
The subjects were examined and data was recorded throughout the treatment period and following the cessation of treatment. […] The only apparent negative effects of the treatment were incidents of edema and minor manifestations of SPK. These negative manifestations resolved favorably for most patients.

[2] = system: eyes of myopic human subjects; assay: Mild myopia study, group II: 500 IU hyaluronidase, corrective lenses, 3% glyceraldehyde (Example 9)
Excerpt: Given the favorable results obtained in Example 8, an additional study was undertaken to test the safety and efficacy of the method of the present invention using a larger group of subjects. In this study, a group of subjects were selected and randomly separated into three test groups to test the safety and efficacy of using hyaluronidase and a glyceraldehyde solution for treating subjects with sub-optimal visual acuity. Groups one and two received an intrastromal injection of hyaluronidase (50 and 500 IU, respectively), while group three received a control injection of saline.
Following a two week incubation period after the injection, the three groups were fitted with corrective lenses to optimize the visual acuity of the subjects. The corrective lenses were left in place for a period of time sufficient to alter the shape of the subjects' eyes so as to achieve an optimal visual acuity. This period of time was generally 2 days in length. Once an acceptable visual acuity was achieved, the subjects in the three groups received a topical 3% glyceraldehyde solution in the form of ophthalmic drops four times per day while wearing the corrective lenses. The glyceraldehyde treatment was generally administered for one month. Lens wear occurred from 8 to 12 hours during the day.
At the end of the treatment period both the lens wear and the glyceraldehyde solution administration was terminated. The general health and visual acuity of the subjects was monitored from 3 to 5 months following treatment termination.
The subjects of group II were treated as those in group I in preparation for their participation in the study reported here. Before beginning the experimental protocol, test subjects were examined initially to establish a baseline from which the future results of the treatment were compared.
Following the establishment of a baseline reading, group II subjects were fitted with contact lenses and wore the corrective lenses at night for a period of two (2) to seven (7) days or until an acceptable visual acuity (approximately 20/20) was achieved. Group II test subjects received 500 IU of hyaluronidase by injection as compared to the 50 IU of group I. Two groups of subjects received 500 IU of hyaluronidase. The results obtained from the first group are shown in Table IIIA and the results from the second group are shown in Table IIIA and are identified in the table by the notation Gr. VI. There were no meaningful differences in the treatment protocols between these two groups. Subjects achieving an acceptable visual acuity received the topical 3% glyceraldehyde solution in the form of ophthalmic drops four times per day (08:00, 12:00, 16:00, and 20:00) for a period of 1 month in conjunction with daytime lens wear for stabilization. During this period, lens were occurred for approximately 8-12 hours per day and there was no nocturnal lens wear.
The subjects were examined periodically during the glyceraldehyde treatment to monitor changes in the health of the treated eyes.
At the end of the treatment period, the stabilizing lens were removed and the administration of the 3% glyceraldehyde solution was terminated. Following termination of the treatment, the subjects were examined immediately after treatment was terminated, once a week for the first four weeks after termination, and then monthly to measure changes in the visual acuity of the treated eyes. The health of the eye was also monitored. Sequelae characterized by the appearance or worsening of serious ocular symptoms or slit-lamp findings observed during these examinations were assessed. The proportions of subjects with such findings were analyzed.

Q: What does the source list for O=CC(O)CO (stereo not shown) [glyceraldehyde]?
A: day by which aqueous cell/flare was absent (Dutch Belted rabbit eyes; glyceraldehyde treated cohort had cell and flare at baseline): ≤ 14 days; changes to the structure of the eyes as compared to controls (Dutch Belted rabbit eyes; rabbits, 3% glyceraldehyde 1 drop four times a day, 63 days, 500 IU hyaluronidase in right eye only): no significant changes; effect on resolution of baseline aqueous cell and flare (Dutch Belted rabbit eyes; rabbits, 3% glyceraldehyde drops four times a day): did not appear to impair the resolution of the cell and flare; negative effects of enzyme injection or glyceraldehyde application [1]: no significant negative effects; UVA at follow-up after lens removal ([2]; Gr. VI subject 101, one month time point, baseline 20/200): 20/60; UVA at follow-up after lens removal ([2]; Gr. VI subject 102, two month date, baseline 20/160): 20/20; UVA at follow-up after lens removal ([2]; Gr. VI subject 103, two month date, baseline 20/160): 20/50; UVA at follow-up after lens removal ([2]; Gr. VI subject 104, one month time point, baseline 20/200): 20/80; UVA at follow-up after lens removal ([2]; Gr. VI subject 105, two month date, baseline 20/200): 20/80; UVA at follow-up after lens removal ([2]; Gr. VI subject 106, two month date, baseline 20/160): 20/63; UVA at follow-up after lens removal ([2]; Gr. VI subject 107, one month time point, baseline 20/60): 20/20; overall effect on retention of orthokeratology benefits ([2]; combination of hyaluronidase (500 IU) and glyceraldehyde treatment): effective at retaining the benefits of orthokeratology; UVA at follow-up after lens removal ([2]; subject 00S/031, three month point, baseline 20/200): 20/50; UVA at follow-up after lens removal ([2]; subject 004, four month point, baseline 20/160): 20/50; UVA at follow-up after lens removal ([2]; subject 013, three month point, baseline 20/100): 20/40; UVA at follow-up after lens removal ([2]; subject 017, three month point, baseline 20/50): 20/25; UVA at follow-up after lens removal ([2]; subject 018, three month point, baseline 20/80): 20/25; UVA at follow-up after lens removal ([2]; subject 019, three month point, baseline 20/70): 20/15; UVA at follow-up after lens removal ([2]; subject 023, two months, baseline 20/70): 20/20; UVA at follow-up after lens removal ([2]; subject 026, two months, baseline 20/50): 20/25; UVA at follow-up after lens removal ([2]; subject 030, two months, baseline 20/300): 20/100; UVA at follow-up after lens removal ([2]; subject P10/008, three month point, baseline 20/400): 20/80
